From BindingDB's records for doi:10.1021/acsmedchemlett.6b00299 (University of Michigan, 2016)

Test: Inhibition of human serum factor D-mediated complement activation in rabbit erythrocytes assessed as reduction in rabbit erythrocyte hemolysis preincubated with human serum for 15 mins followed by addition of rabbit erythrocytes and Mg-EGTA measured after 30 mins

Row | SMILES | IC50
1 | NC(=O)c1nn(CC(=O)N2CCS[C@H]2C(=O)Nc2cccc(Br)n2)c2ncccc12 | 205 nM
2 | NC(=O)c1nn(CC(=O)N2[C@@H]3C[C@@H]3C[C@H]2C(=O)Nc2cccc(Br)n2)c2ncccc12 | 47 nM
